Target: T1, TDO2 (Homo sapiens, UniProt P48775)
T1 construct: decreased levels of NFK in SW48 cells (high TDO expressing cells)
Assay: TDO2 cell assay (NFK GreenScreen, SW48 cells)
Assay type: cell-based
Conditions: SW48 cells (high TDO expressing), 200 uM tryptophan, 24 hours; Table 3; read-out: TDO2 Cell Fluor EC50

T1 sequence (P48775 whole entry): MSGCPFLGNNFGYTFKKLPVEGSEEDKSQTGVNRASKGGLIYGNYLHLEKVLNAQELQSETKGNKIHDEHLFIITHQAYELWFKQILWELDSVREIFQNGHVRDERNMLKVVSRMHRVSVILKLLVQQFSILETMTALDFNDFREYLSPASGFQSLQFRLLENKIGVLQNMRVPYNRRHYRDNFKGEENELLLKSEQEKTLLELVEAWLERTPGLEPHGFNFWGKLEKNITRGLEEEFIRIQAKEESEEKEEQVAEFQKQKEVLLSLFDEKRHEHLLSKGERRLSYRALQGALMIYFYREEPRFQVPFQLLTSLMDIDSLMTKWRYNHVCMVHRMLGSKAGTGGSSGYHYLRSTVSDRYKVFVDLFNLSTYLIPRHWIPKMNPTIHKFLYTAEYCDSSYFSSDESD

SMILES	EC50 [µM]
OC1CCOCC1C1c2c(F)cccc2-c2cncn21 (single isomer, unassigned) [Example 73c]	0.34
OC1CCOCC1C1c2c(F)cccc2-c2cncn21 (single isomer, unassigned) [Example 73d]	> 25
OC1COCCC1C1c2cc(F)ccc2-c2cncn21 (single isomer, unassigned) [Example 75-1a]	5.7
OC1COCCC1C1c2cc(F)ccc2-c2cncn21 (single isomer, unassigned) [Example 75-1b]	> 25
OC1COCCC1C1c2cc(F)ccc2-c2cncn21 (single isomer, unassigned) [Example 75-1c]	0.11
OC1COCCC1C1c2cc(F)ccc2-c2cncn21 (single isomer, unassigned) [Example 75-1d]	> 25
OC1CCOCC1C1c2cc(F)ccc2-c2cncn21 (single isomer, unassigned) [Example 75a]	> 25
OC1CCOCC1C1c2cc(F)ccc2-c2cncn21 (single isomer, unassigned) [Example 75b]	1.2
OC1CCOCC1C1c2cc(F)ccc2-c2cncn21 (single isomer, unassigned) [Example 75c]	19
OC1CCOCC1C1c2cc(F)ccc2-c2cncn21 (single isomer, unassigned) [Example 75d]	0.52
CCS(=O)(=O)N1CCC2(CCC(C3c4ccccc4-c4cncn43)C2O)CC1 (single isomer, unassigned) [Example 76a]	9.5
CCS(=O)(=O)N1CCC2(CCC(C3c4ccccc4-c4cncn43)C2O)CC1 (single isomer, unassigned) [Example 76b]	15
CCS(=O)(=O)N1CCC2(CCC(C3c4ccccc4-c4cncn43)C2O)CC1 (single isomer, unassigned) [Example 76c]	0.071
CCS(=O)(=O)N1CCC2(CCC(C3c4ccccc4-c4cncn43)C2O)CC1 (single isomer, unassigned) [Example 76d]	15
CCS(=O)(=O)N1CCC2(CCC(C3c4ccccc4-c4cncn43)C2O)CC1 (single isomer, unassigned) [Example 76e]	0.25
O=S(=O)(C1CC1)N1CC[C@@H]([C@H]2c3ccccc3-c3cncn32)[C@H](O)C1 (single isomer, unassigned) [Example 77a]	> 25
CS(=O)(=O)N1CCC(C2c3ccccc3-c3cncn32)C(O)C1 (single isomer, unassigned) [Example 79a]	8.1
CS(=O)(=O)N1CCC(C2c3ccccc3-c3cncn32)C(O)C1 (single isomer, unassigned) [Example 79b]	5.2
CC(C)S(=O)(=O)N1CC[C@@H]([C@H]2c3ccccc3-c3cncn32)[C@H](O)C1 (single isomer, unassigned) [Example 80a]	> 25
CC(C)S(=O)(=O)N1CC[C@@H]([C@H]2c3ccccc3-c3cncn32)[C@H](O)C1 (single isomer, unassigned) [Example 80b]	0.14
O=S(=O)(C1CC1)N1CC[C@@H]([C@@H]2c3ccccc3-c3cncn32)[C@H](O)C1 (single isomer, unassigned) [Example 81a]	5.3
O=S(=O)(C1CC1)N1CC[C@@H]([C@@H]2c3ccccc3-c3cncn32)[C@H](O)C1 (single isomer, unassigned) [Example 81b]	> 25
CC1(C)OC(C)(C)C(C2c3ccccc3-c3cncn32)C1O (single isomer, unassigned) [Example 84a]	14
CC1(C)OC(C)(C)C(C2c3ccccc3-c3cncn32)C1O (single isomer, unassigned) [Example 84b]	0.067

SMILES	EC50 [µM]
CC1(C)OC(C)(C)C(C2c3ccccc3-c3cncn32)C1O (single isomer, unassigned) [Example 84c]	13
CC1(C)OC(C)(C)C(C2c3ccccc3-c3cncn32)C1O (single isomer, unassigned) [Example 84d]	3.6
CC1(C)OC(C)(C)C(C2c3ccccc3-c3cncn32)C1O (single isomer, unassigned) [Example 84e]	> 25
CC1(C)OC(C)(C)C(C2c3ccccc3-c3cncn32)C1O (single isomer, unassigned) [Example 84f]	> 25
CC1(C)OCC(C2c3ccccc3-c3cncn32)C1O (single isomer, unassigned) [Example 85a]	24
CC1(C)OCC(C2c3ccccc3-c3cncn32)C1O (single isomer, unassigned) [Example 85b]	0.13
CC1(C)OCC(C2c3ccccc3-c3cncn32)C1O (single isomer, unassigned) [Example 85c]	11
CC1(C)OCC(C2c3ccccc3-c3cncn32)C1O (single isomer, unassigned) [Example 85d]	0.66
CC1(C)OCC(C2c3ccccc3-c3cncn32)C1O (single isomer, unassigned) [Example 85e]	> 25
CC1(C)OCC(C2c3ccccc3-c3cncn32)C1O (single isomer, unassigned) [Example 85f]	> 25
CC1(C)OCC(C2c3ccccc3-c3cncn32)C1O (single isomer, unassigned) [Example 85g]	0.14
CC1(C)OCC(C2c3ccccc3-c3cncn32)C1O (single isomer, unassigned) [Example 85h]	0.66
OC1CCCOCC1C1c2ccccc2-c2cncn21 (single isomer, unassigned) [Example 86a]	14
OC1CCCOCC1C1c2ccccc2-c2cncn21 (single isomer, unassigned) [Example 86b]	0.52
OC1CCCOCC1C1c2ccccc2-c2cncn21 (single isomer, unassigned) [Example 86c]	> 25
OC1CCCOCC1C1c2ccccc2-c2cncn21 (single isomer, unassigned) [Example 86d]	0.14
OC1CCCOCC1C1c2ccccc2-c2cncn21 (single isomer, unassigned) [Example 86e]	> 25
OC1CCCOCC1C1c2ccccc2-c2cncn21 (single isomer, unassigned) [Example 86f]	0.15
OC1CCCOCC1C1c2ccccc2-c2cncn21 (single isomer, unassigned) [Example 86g]	0.84
OC1CC2(COC2)C1C1c2ccccc2-c2cncn21 (single isomer, unassigned) [Example 87a]	18
OC1CC2(COC2)C1C1c2ccccc2-c2cncn21 (single isomer, unassigned) [Example 87c]	6
OC1CC2(COC2)C1C1c2ccccc2-c2cncn21 (single isomer, unassigned) [Example 87d]	> 25
OC1CC2(COC2)C1C1c2ccccc2-c2cncn21 (single isomer, unassigned) [Example 87e]	14
OC1CC2(COC2)C1C1c2ccccc2-c2cncn21 (single isomer, unassigned) [Example 87f]	17

SMILES	EC50 [µM]
OC1CC2(COC2)C1C1c2ccccc2-c2cncn21 (single isomer, unassigned) [Example 87g]	0.24
OC1CC2(COC2)C1C1c2ccccc2-c2cncn21 (single isomer, unassigned) [Example 87h]	11
OC1c2nccn2CCC1C1c2ccccc2-c2cncn21 (single isomer, unassigned) [Example 88a]	> 25
OC1c2nccn2CCC1C1c2ccccc2-c2cncn21 (single isomer, unassigned) [Example 88b]	> 25
OC1c2nccn2CCC1C1c2ccccc2-c2cncn21 (single isomer, unassigned) [Example 88c]	> 25
OC1c2nccn2CCC1C1c2ccccc2-c2cncn21 (single isomer, unassigned) [Example 88d]	21
OC1c2nccn2CCC1C1c2ccccc2-c2cncn21 (single isomer, unassigned) [Example 88e]	> 25
OC1c2nccn2CCC1C1c2ccccc2-c2cncn21 (single isomer, unassigned) [Example 88f]	5.8
OC1c2nccn2CCC1C1c2ccccc2-c2cncn21 (single isomer, unassigned) [Example 88g]	0.73
OC1c2nccn2CCC1C1c2ccccc2-c2cncn21 (single isomer, unassigned) [Example 88h]	> 25
CC(C)S(=O)(=O)N1CCC(C2c3ccccc3-c3cncn32)C(O)C1 (single isomer, unassigned) [Example 89a]	14
CC(C)S(=O)(=O)N1CCC(C2c3ccccc3-c3cncn32)C(O)C1 (single isomer, unassigned) [Example 89b]	> 25
CC1(C)CCCC(C)(C2c3ccccc3-c3cncn32)C1O (single isomer, unassigned) [Example 90a]	> 25
CC1(C)CCCC(C)(C2c3ccccc3-c3cncn32)C1O (single isomer, unassigned) [Example 90b]	> 25
CC1(C)CCCC(C)(C2c3ccccc3-c3cncn32)C1O (single isomer, unassigned) [Example 90c]	0.057
CC1(C)CCCC(C)(C2c3ccccc3-c3cncn32)C1O (single isomer, unassigned) [Example 90d]	9.4
CC1(C)CCCC(C)(C2c3ccccc3-c3cncn32)C1O (single isomer, unassigned) [Example 90f]	0.41
CS(=O)(=O)c1ccc2c(c1)OCC(C1c3ccccc3-c3cncn31)C2O (single isomer, unassigned) [Example 91a]	2.8
CS(=O)(=O)c1ccc2c(c1)OCC(C1c3ccccc3-c3cncn31)C2O (single isomer, unassigned) [Example 91b]	> 25
CS(=O)(=O)c1ccc2c(c1)OCC(C1c3ccccc3-c3cncn31)C2O (single isomer, unassigned) [Example 91c]	> 25
CS(=O)(=O)c1ccc2c(c1)OCC(C1c3ccccc3-c3cncn31)C2O (single isomer, unassigned) [Example 91d]	0.36
CS(=O)(=O)c1ccc2c(c1)OCC(C1c3ccccc3-c3cncn31)C2O (single isomer, unassigned) [Example 91e]	6.1

— patent US12583858B2 (Genentech, Inc., priority 2015, dated 2026)
